The numbers were not newly measured in patent publication US20100119592A1, “CYTARABINE FOR TREATMENT OF GLIOMA” (priority 2006, published 2010), which cites them from elsewhere.

This data set concerns proliferating mammalian cells in culture. The settings on record: wide variety of proliferating mammalian cells in culture.

Take `Nc1ccn([C@@H]2O[C@H](CO)[C@@H](O)[C@@H]2O)c(=O)n1` [Cytarabine, 4-amino-1-beta-D-arabinofuranosyl-2(1H)-pyrimidinone]: the cytotoxicity result is given as “cytotoxic”.
